One test relates to Human CTPS1 Versus CTPS2. The test is described as follows: RapidFire/MS-based enzyme selectivity assay, human CTPS1 versus CTPS2. Format: biochemical. The note with it: RapidFire/MS IC50s. On the procedure: Human CTPS1 Versus CTPS2 Selectivity Assessment by RapidFire/MS Analysis.
The enzyme inhibitory activities against each target isoform of interest may be determined for the compounds of the invention using an optimised RapidFire high-throughput mass spectrometry (RF/MS) assay format. RF/MS assays for both human CTPS1 and CTPS2 may be performed in assay buffer consisting of 50 mM HEPES (Merck), 20 mM MgCl2, 5 mM KCl, 1 mM DTT, 0.01% Tween-20, pH to 8.0 accordingly. Human full-length active C-terminal FLAG-His-tag CTPS1 (UniProtKB—P17812, CTPS1[1-591]-[…] (CTPS1[1-591]-SEQ ID NO: 1)) may be obtained from Proteros biostructures GmbH. Human full length active C-terminal FLAG-His-Avi tagged CTPS2 (UniProtKB—Q9NRF8, CTPS2 [1-586]—[…] (CTPS2 [1-586]-SEQ ID NO: 2)) may be obtained from Harker Bio.
Human CTPS (1 or 2) protein may be prepared in 1× assay buffer to the final working protein concentration required for the reaction. A 2 uL volume per well of 2×CTPS (1 or 2) protein may be mixed with 40 nL of compound using acoustic (ECHO) delivery and incubated for 10 minutes at 25° C. Each isoform enzymatic reaction may be subsequently initiated by addition of 2 uL per well of a 2× substrate mix in assay buffer. For hCTPS1: ATP (0.3 mM), UTP (0.2 mM), GTP (0.07 mM) and L-glutamine (0.1 mM). For hCTPS2: ATP (0.1 mM), UTP (0.04 mM), GTP (0.03 mM) and L-glutamine (0.1 mM). Each mixture may be incubated for an appropriate amount of time per isoform within the determined linear phase of the reaction at 25° C. A 60 uL volume of stop solution (1% formic acid with 0.5 uM ^13C9-^15N3-CTP in H2O) may be added and the plate immediately heat-sealed and centrifuged for 10 minutes at 4,000 rpm. Following centrifugation, plates may be loaded onto the Agilent RapidFire microfluidic solid phase extraction system coupled to an API4000 triple quadrupole mass spectrometer (RF/MS) for analysis.
In all cases, the enzyme converts UTP to CTP. Highly specific and sensitive multiple reaction monitoring (MRM) MS methods may be optimised for the detection of the enzymatic reaction product, CTP, and the stable isotope labelled product standard ^13C-^15N-CTP. Readout for data analysis may be calculated as the ratio between the peak area of the product CTP and the internal standard […]. For data reporting, the following equation may be used: […]
For each screening plate, the means of the negative (DMSO) and positive control values were used for the calculation of the respective assay window (S/B) and Z′ values. The median of the respective control values was used for calculation of percent inhibition according to the following equation: […]
(§1) Percentage inhibition was then plotted against compound concentration, and the 50% inhibitory concentration (IC50) was determined from the resultant concentration-response curve.
Fold selectivity between CTPS1 and CTPS2 was subsequently calculated according to the following equation: […]

The target in the next test is T1, human CTPS1 (Homo sapiens, UniProt P17812).
T1 construct: FLAG (GG linker + DYKDDDDK); His8 (GG linker + HHHHHHHH); purchased Proteros biostructures GmbH
T1 sequence (P17812 1-591): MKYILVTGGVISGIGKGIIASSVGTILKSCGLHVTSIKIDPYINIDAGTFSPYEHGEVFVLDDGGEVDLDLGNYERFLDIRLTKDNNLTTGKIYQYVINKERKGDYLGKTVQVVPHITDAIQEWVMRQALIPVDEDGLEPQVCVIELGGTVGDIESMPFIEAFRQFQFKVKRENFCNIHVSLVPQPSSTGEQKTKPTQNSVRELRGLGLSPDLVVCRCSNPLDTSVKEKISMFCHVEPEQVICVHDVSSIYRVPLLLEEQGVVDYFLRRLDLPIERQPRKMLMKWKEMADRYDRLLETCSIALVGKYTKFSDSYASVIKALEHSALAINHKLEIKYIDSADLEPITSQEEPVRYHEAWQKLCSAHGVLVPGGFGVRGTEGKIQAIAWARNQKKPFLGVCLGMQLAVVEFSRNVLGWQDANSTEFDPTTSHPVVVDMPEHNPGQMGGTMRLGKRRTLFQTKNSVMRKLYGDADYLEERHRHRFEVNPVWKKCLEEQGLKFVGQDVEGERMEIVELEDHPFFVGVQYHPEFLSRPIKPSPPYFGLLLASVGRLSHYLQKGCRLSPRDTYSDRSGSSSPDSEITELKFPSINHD
The test is described as follows: Human CTPS1 enzyme inhibition (ADP-Glo Max assay). The note with it: 25° C., read-out: Human CTPS1 Enzyme Inhibition IC50, grouped by potency range. It counts as biochemical. As for the experimental part:
The enzyme inhibitory activities of compounds invented against the target of interest were determined using the ADP-Glo™ Max assay (Promega, UK). Assays for human CTPS1 were performed in 1× assay buffer containing 50 mM Tris, 10 mM MgCl2, 0.01% Tween-20, pH to 8.0 accordingly. Finally, immediately before use, L-cysteine was added to the 1× assay buffer to a final concentration of 2 mM. All reagents are from Sigma-Aldrich unless specified otherwise.
Human full length active C-terminal FLAG-Hiss-tag CTPS1 (UniProtKB—P17812, CTPS1[1-591]-[…] (CTPS1[1-591]-SEQ ID NO: 1)) was obtained from Proteros biostructures GmbH.
3× human CTPS1 protein was prepared in 1× assay buffer to the final working protein concentration required for the reaction. A 2 uL volume per well of 3× human CTPS1 protein was mixed with 2 uL per well of 3× test compound (compound prepared in 1× assay buffer to an appropriate final 3× compound concentration respective to the concentration response curve designed for the compounds under test) for 10 minutes at 25° C. The enzymatic reaction was then initiated by addition of a 2 uL per well volume of a pre-mixed substrate mix (UltraPure ATP from ADP-GIo™ Max kit (0.31 mM), GTP (0.034 mM), UTP (0.48 mM) and L-glutamine (0.186 mM)) and the mixture was incubated for an appropriate amount of time within the determined linear phase of the reaction at 25° C. under sealed plate conditions with constant agitation at 500 revolutions per minute (rpm). ADP-GIo™ Max reagent was added for 60 minutes (6 μL per well) and subsequently ADP-GIo™ Max development reagent was added for 60 minutes (12 uL per well) prior to signal detection in a microplate reader (EnVision® Multilabel Reader, Perkin Elmer). Following each reagent addition over the course of the assay, assay plates were pulse centrifuged for 30 seconds at 500 rpm.
In all cases, the enzyme converts ATP to ADP and the ADP-Glo™ Max reagent subsequently depletes any remaining endogenous ATP in the reaction system. The ADP-Glo™ Max detection reagent converts the ADP that has been enzymatically produced back into ATP and using ATP as a substrate together with luciferin for the enzyme luciferase, light is generated which produces a detectable luminescence. […] The percentage inhibition produced by each concentration of compound was calculated using the equation shown below: […]
as §1
In general terms: ADP-Glo first removes unused ATP, then detects ADP through luciferase.

The structures appear in SMILES notation. A value given as a limit tells only on which side of the number the result lay.

The term IC50 denotes the concentration that gives 50% inhibition. Turning to `CCOc1cncc(-c2ccc(NC(=O)C3(c4ccnc(NS(=O)(=O)C5CC5)n4)CCN(C(C)=O)CC3)nc2)n1` [P234, 1-Acetyl-4-(2-(cyclopropanesulfonamido)pyrimidin-4-yl)-N-(5-(6-ethoxypyrazin-2-yl)pyridin-2-yl)piperidine-4-carboxamide], in the test on Human CTPS1 Versus CTPS2, the “Fold selectivity between CTPS1 and CTPS2 (CTPS1)” value is “+++ (>60 fold (+++))”. The IC50 at human CTPS1 is not above 100 nM.
For `CCOc1cncc(-c2ccc(NC(=O)C3(c4ccnc(NS(C)(=O)=O)n4)CCOCC3)nc2)n1` [P236, N-(5-(6-ethoxypyrazin-2-yl)pyridin-2-yl)-4-(2-(methylsulfonamido)pyrimidin-4-yl)tetrahydro-2H-pyran-4-carboxamide] the same measures were “+++ (>60 fold (+++))” and not above 100 nM.
`CCOc1cncc(-c2ccc(NC(=O)C3(c4nccc(NS(=O)(=O)C5CC5)n4)CCOCC3)nc2)n1` [P243, 4-(4-(cyclopropanesulfonamido)pyrimidin-2-yl)-N-(5-(6-ethoxypyrazin-2-yl)pyridin-2-yl)tetrahydro-2H-pyran-4-carboxamide]: the “Fold selectivity between CTPS1 and CTPS2 (CTPS1)” value with Human CTPS1 Versus CTPS2 is on record as “+++ (>60 fold (+++))”. Also, the IC50 at human CTPS1 was not above 100 nM.
Regarding `CCOc1cncc(-c2ccc(NC(=O)C3(c4ccnc(NS(=O)(=O)C(C)(C)C)n4)CCOCC3)nc2)n1` [P246, 4-(2-((1,1-dimethylethyl)sulfonamido)pyrimidin-4-yl)-N-(5-(6-ethoxypyrazin-2-yl)pyridin-2-yl)tetrahydro-2H-pyran-4-carboxamide], the “Fold selectivity between CTPS1 and CTPS2 (CTPS1)” value in the test with Human CTPS1 Versus CTPS2 was “+++ (>60 fold (+++))”. Further, at human CTPS1, the IC50 was 100 to 1000 nM.
In the case of `CCOc1cncc(-c2ccc(NC(=O)C3(c4ccnc(NS(=O)(=O)C5CC5)n4)CCCCC3)nc2)n1` [P237, 1-(2-(cyclopropanesulfonamido)pyrimidin-4-yl)-N-(5-(6-ethoxypyrazin-2-yl)pyridin-2-yl)cyclohexane-1-carboxamide], in the test on Human CTPS1 Versus CTPS2, the “Fold selectivity between CTPS1 and CTPS2 (CTPS1)” value is “+++ (>60 fold (+++))”. Besides, the IC50 on human CTPS1 is not above 100 nM.
With `CCOc1cncc(-c2ccc(NC(=O)C3(c4ccnc(NS(=O)(=O)C5CC5)n4)CCOCC3)c(C)c2)n1` [P240, 4-(2-(cyclopropanesulfonamido)pyrimidin-4-yl)-N-(4-(6-ethoxypyrazin-2-yl)-2-methylphenyl)tetrahydro-2H-pyran-4-carboxamide], in the test on Human CTPS1 Versus CTPS2, the “Fold selectivity between CTPS1 and CTPS2 (CTPS1)” value is given as “+ (2-30 fold (+))”. Also, the IC50 at human CTPS1 was not above 100 nM.
For the compound `CCOc1cncc(-c2ccc(NC(=O)C3(c4ccnc(NS(=O)(=O)C5CC5)n4)CCN(C(C)C)CC3)nc2)n1` [P232, 4-(2-(Cyclopropanesulfonamido)pyrimidin-4-yl)-N-(5-(6-ethoxypyrazin-2-yl)pyridin-2-yl)-1-isopropylpiperidine-4-carboxamide], the “Fold selectivity between CTPS1 and CTPS2 (CTPS1)” value with Human CTPS1 Versus CTPS2 is “+++ (>60 fold (+++))”. The IC50 at human CTPS1 was in the range of 100 to 1000 nM.
In the case of `CCOc1cncc(-c2ccc(NC(=O)C3(c4ccnc(NS(=O)(=O)C5CC5)n4)CCN(C(=O)NC(C)C)CC3)nc2)n1` [P233, 4-(2-(Cyclopropanesulfonamido)pyrimidin-4-yl)-N4-(5-(6-ethoxypyrazin-2-yl)pyridin-2-yl)-N1-isopropylpiperidine-1,4-dicarboxamide], in the test with Human CTPS1 Versus CTPS2, the “Fold selectivity between CTPS1 and CTPS2 (CTPS1)” value is on record as “+++ (>60 fold (+++))”. The IC50 at human CTPS1 was not above 100 nM.
`O=C(Nc1ccc(-c2cncc(Cl)c2)cn1)C1(c2ccnc(NS(=O)(=O)C3CC3)n2)CCOCC1` [P253, N-(5′-chloro-[3,3′-bipyridin]-6-yl)-4-(2-(cyclopropanesulfonamido)pyrimidin-4-yl)tetrahydro-2H-pyran-4-carboxamide]: the “Fold selectivity between CTPS1 and CTPS2 (CTPS1)” value in the test on Human CTPS1 Versus CTPS2 is “++ (>30-60 fold (++))”. Also, on human CTPS1, the IC50 is not above 100 nM.

(Values after US12466810B2, “N-(5-(6-ethoxypyrazin-2-yl)pyridin-2-yl)-4-(2-(methylsulfonamido)pyrimidin-4-yl) tetrahydro-2H-pyran-4-carboxamide derivatives and related compounds as human CTPS1 inhibitors for the treatment of proliferative diseases” (Step Pharma S.A.S., priority 2019, dated 2025).)
